Values of other authors as cited in patent publication US6107059A, “Peptide library and screening method” (Affymax Technologies N.V., priority 1992, dated 2000).

Target: streptavidin (Streptomyces avidinii, UniProt P22629)
Conditions: comparison in words, no number given

Sequence of streptavidin (P22629 25-183): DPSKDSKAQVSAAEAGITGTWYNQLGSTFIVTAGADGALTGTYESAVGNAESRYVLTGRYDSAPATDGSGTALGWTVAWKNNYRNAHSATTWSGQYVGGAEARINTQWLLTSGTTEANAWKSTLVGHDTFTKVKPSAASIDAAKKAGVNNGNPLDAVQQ

N=C1N[C@H]2[C@H](CS[C@H]2CCCCC(=O)O)N1 [iminobiotin]
Kd for streptavidin, compared with biotin: much lower Kd
